According to ChEMBL document CHEMBL1671782, “Cationic surfactants derived from lysine: effects of their structure and charge type on antimicrobial and hemolytic activities” (J Med Chem, 2011):
Converted amounts (≈) assume the structure as drawn. The source made the active and inactive calls. The calls are words filed in the database; no cut-off is given here. Peptide text beside a SMILES is read from it. * marks the point of attachment. Lauroyl = CCCCCCCCCCCC(=O)*

Columns and labels:
[1] = test system: Bacillus subtilis; assay: microbe, parasite or virus in culture; settings: ATCC 6633, 24 h
Description: Antimicrobial activity against Bacillus subtilis ATCC 6633 assessed as inhibition of visible growth after 24 hrs at pH 7.4

[2] = test system: Micrococcus luteus; assay: microbe, parasite or virus in culture; settings: ATCC 9341, 24 h
Description: Antimicrobial activity against Micrococcus luteus ATCC 9341 assessed as inhibition of visible growth after 24 hrs at pH 7.4

[3] = test system: Klebsiella pneumoniae; assay: Antimicrobial activity against Klebsiella pneumoniae ATCC 9721 at 250 ug/ml at pH 7.4; type: functional, organism-based
[4] = test system: Candida albicans; assay: microbe, parasite or virus in culture; settings: ATCC 10231, 24 h
Description: Antimicrobial activity against Candida albicans ATCC 10231 assessed as inhibition of visible growth after 24 hrs at pH 7.4

[5] = test system: Staphylococcus epidermidis; assay: microbe, parasite or virus in culture; settings: ATCC 155-1, 24 h
Description: Antimicrobial activity against Staphylococcus epidermidis ATCC 155-1 assessed as inhibition of visible growth after 24 hrs at pH 7.4

[6] = in vitro; settings: human, erythrocytes
Description: Toxicity in human erythrocytes assessed as hemolytic activity measured after 10 mins shaking

[7] = physchem
Description: Dissociation constant, pKa of the compound

[8] = test system: Staphylococcus aureus; assay: microbe, parasite or virus in culture; settings: ATCC 25178, 24 h
Description: Antimicrobial activity against Staphylococcus aureus ATCC 25178 assessed as inhibition of visible growth after 24 hrs at pH 7.4

[9] = test system: Staphylococcus aureus; assay: Antimicrobial activity against Staphylococcus aureus ATCC 25178 at 250 ug/ml at pH 7.4; type: functional, organism-based
[10] = test system: Micrococcus luteus; assay: Antimicrobial activity against Micrococcus luteus ATCC 9341 at 250 ug/ml at pH 7.4; type: functional, organism-based
[11] = test system: Pseudomonas aeruginosa; assay: microbe, parasite or virus in culture; settings: ATCC 9721, 24 h
Description: Antimicrobial activity against Pseudomonas aeruginosa ATCC 9721 assessed as inhibition of visible growth after 24 hrs at pH 7.4

[12] = test system: Escherichia coli; assay: microbe, parasite or virus in culture; settings: ATCC 27325, 24 h
Description: (§1) Antimicrobial activity against Escherichia coli ATCC 27325 assessed as inhibition of visible growth after 24 hrs at pH 7.4

[13] = test system: Klebsiella pneumoniae; assay: microbe, parasite or virus in culture; settings: ATCC 9721, 24 h
Description: Antimicrobial activity against Klebsiella pneumoniae ATCC 9721 assessed as inhibition of visible growth after 24 hrs at pH 7.4

[14] = test system: Escherichia coli; settings: ATCC 27325
Description: as §1

| Structure (SMILES) | MIC [1] | MIC [2] | MIC [4] | MIC [5] | HC50 at 10 min [6] | pKa [7] | MIC [8] | MIC [11] | MIC [12] | MIC [13] | Activity [3] | Activity [9] | Activity [10] | Activity [14] |
| --- | --- | --- | --- | --- | --- | --- | --- | --- | --- | --- | --- | --- | --- | --- |
| CCCCCCCCCCCC(=O)N[C@@H](CCCNC(=N)N)C(=O)NCCCC[C@H](N)C(=O)OC | 218 µM (≈ 109 µg/mL) | 436 µM (≈ 217 µg/mL) | 436 µM (≈ 217 µg/mL) | 436 µM (≈ 217 µg/mL) | 791 µM | 10 | 436 µM (≈ 217 µg/mL) |  |  |  | inactive |  |  |  |
| CCCCCCCCCCCC(=O)N[C@@H](CCCCN)C(=O)OC | 331 µM (≈ 113 µg/mL) | 83 µM (≈ 28.4 µg/mL) | 166 µM (≈ 56.9 µg/mL) | 83 µM (≈ 28.4 µg/mL) | 199 µM | 10 | 166 µM (≈ 56.9 µg/mL) | 331 µM (≈ 113 µg/mL) | 331 µM (≈ 113 µg/mL) | 331 µM (≈ 113 µg/mL) |  |  |  |  |
| CCCCCCCCCCCC(=O)N[C@@H](CCCNC(=N)N)C(=O)N[C@@H](CCCCN)C(=O)OC (Lauroyl-Arg-Lys-OMe) | 28 µM (≈ 14 µg/mL) | 28 µM (≈ 14 µg/mL) | 218 µM (≈ 109 µg/mL) | 218 µM (≈ 109 µg/mL) | 1350 µM | 10 | 54 µM (≈ 26.9 µg/mL) | 218 µM (≈ 109 µg/mL) | 218 µM (≈ 109 µg/mL) | 218 µM (≈ 109 µg/mL) |  |  |  |  |
| CCCCCCCCCCCC(=O)NCCCC[C@H](N)C(=O)OC | 331 µM (≈ 113 µg/mL) | 331 µM (≈ 113 µg/mL) | 166 µM (≈ 56.9 µg/mL) | 166 µM (≈ 56.9 µg/mL) | 391 µM | 10 | 331 µM (≈ 113 µg/mL) |  | 166 µM (≈ 56.9 µg/mL) | 331 µM (≈ 113 µg/mL) |  |  |  |  |
| CCCCCCCCCCCC(=O)NCCCC[C@H](N)C(=O)NCCCCNCCCNC(=O)[C@@H](N)CCCCNC(=O)CCCCCCCCCCC | 142 µM (≈ 109 µg/mL) | 142 µM (≈ 109 µg/mL) | 285 µM (≈ 218 µg/mL) | 142 µM (≈ 109 µg/mL) | 12 µM |  |  | 142 µM (≈ 109 µg/mL) |  |  | inactive | inactive |  |  |
| CCCCCCCCCCCC(=O)NCCCC[C@@H](C(=O)NCCCCCCNC(=O)[C@H](CCCCNC(=O)CCCCCCCCCCC)[N+](C)(C)C)[N+](C)(C)C | 16 µM | 67 µM | 67 µM | 16 µM | 11 µM |  | 67 µM |  |  |  | inactive |  |  |  |

Continued, in another order:

| MIC [1] | MIC [2] | MIC [4] | MIC [5] | HC50 at 10 min [6] | pKa [7] | MIC [8] | MIC [11] | MIC [12] | MIC [13] | Structure (SMILES) | Activity [3] | Activity [9] | Activity [10] | Activity [14] |
| --- | --- | --- | --- | --- | --- | --- | --- | --- | --- | --- | --- | --- | --- | --- |
| 308 µM (≈ 227 µg/mL) |  |  | 38 µM (≈ 28 µg/mL) | 116 µM |  |  |  |  |  | CCCCCCCCCCCC(=O)NCCCC[C@H](N)C(=O)NCCCCCCNC(=O)[C@@H](N)CCCCNC(=O)CCCCCCCCCCC | inactive | inactive | inactive |  |
| 308 µM (≈ 227 µg/mL) | 154 µM (≈ 114 µg/mL) |  | 77 µM (≈ 56.8 µg/mL) | 475 µM |  | 154 µM (≈ 114 µg/mL) |  |  |  | CCCCCCCCCCCC(=O)N[C@@H](CCCCN)C(=O)NCCCCCCNC(=O)[C@H](CCCCN)NC(=O)CCCCCCCCCCC | inactive |  |  | inactive |
